Eight molecules from ChEMBL document CHEMBL4706559, “New indolylarylsulfone non-nucleoside reverse transcriptase inhibitors show low nanomolar inhibition of single and double HIV-1 mutant strains” (Eur J Med Chem, 2020) can be followed below.

Series [1] concerns Human immunodeficiency virus 1. Description: Antiviral activity against HIV1 harboring RT Y181C mutant infected in human MT4 cells assessed as protection against virus-induced cytopathic effect by MTT assay. It is filed as functional, organism-based. The conditions noted are these: Human immunodeficiency virus 1, MT4.
Series [2] is described as follows: Selectivity ratio of CC50 for human MT4 cells to EC50 for antiviral activity against HIV-1 NL4-3 infected in human MT4 cells. The following applies: read-out: Ratio CC50/EC50. The class given is toxicity, cell-based.
Series [3] relates to Human immunodeficiency virus 1. Nature of the series: Antiviral activity against HIV1 harboring RT K103N mutant infected in human MT4 cells assessed as protection against virus-induced cytopathic effect by MTT assay. The class given is functional, organism-based. The conditions noted are these: Human immunodeficiency virus 1, MT4.
The test system of series [4] is Human immunodeficiency virus 1. Description: Antiviral activity against HIV1 harboring RT Y188L mutant infected in human MT4 cells assessed as protection against virus-induced cytopathic effect by MTT assay. The conditions noted are these: Human immunodeficiency virus 1, MT4. The class given is functional, organism-based.
Series [5] relates to Human immunodeficiency virus 1. Description: Resistance index, ratio of EC50 for antiviral activity against HIV1 harboring RT Y188L mutant infected in human MT4 cells to EC50 for antiviral activity against HIV1 NL4-3 infected in human MT4 cells. The class given is functional.
The test system of series [6] is Human immunodeficiency virus 1. Description: Resistance index, ratio of EC50 for antiviral activity against HIV1 harboring RT Y181C mutant infected in human MT4 cells to EC50 for antiviral activity against HIV1 NL4-3 infected in human MT4 cells. It is filed as functional.
In series [7] the test system is Human immunodeficiency virus 1. Description: Antiviral activity against HIV1 harboring RT K103N/Y181C double mutant infected in human MT4 cells assessed as protection against virus-induced cytopathic effect by MTT assay. The class given is functional, organism-based. The conditions noted are these: Human immunodeficiency virus 1, MT4.
Series [8] has as its system Human immunodeficiency virus 1. Description: Antiviral activity against HIV-1 NL4-3 infected in human MT-4 cells assessed as virus induced cytopathic effect by MTT assay. The class given is functional, organism-based. The following applies: Human immunodeficiency virus 1, NL4-3, MT4.
For series [9], the system named is Human immunodeficiency virus 1. Description: Resistance index, ratio of EC50 for antiviral activity against HIV1 harboring RT K103N mutant infected in human MT4 cells to EC50 for antiviral activity against HIV1 NL4-3 infected in human MT4 cells. It is filed as functional.
Series [10] in a line: Cytotoxicity against human MT-4 cells assessed as reduction in cell viability by MTT assay. It is filed as cell-based, MT4.
Series [11] relates to Human immunodeficiency virus 1. Nature of the series: Resistance index, ratio of EC50 for antiviral activity against HIV1 harboring RT K103N/Y181C double mutant infected in human MT4 cells to EC50 for antiviral activity against HIV1 NL4-3 infected in human MT4 cells. It is filed as functional.
Series [12] has as its target Human immunodeficiency virus type 1 reverse transcriptase (Human immunodeficiency virus 1, UniProt Q72547). Nature of the series: Inhibition of RNA-dependent DNA polymerase activity of wild type recombinant HIV-1 His-tagged p66/p51 reverse transcriptase assessed as inhibition of [3H]dTTP incorporation using poly(rA)/oligo(dT) as templates incubated for 15 mins by MicroBeta scintillation counting method.

Series [13] deals with Human immunodeficiency virus type 1 reverse transcriptase (Human immunodeficiency virus 1, UniProt Q72547, K103N). Nature of the series: Inhibition of RNA-dependent DNA polymerase activity of recombinant HIV-1 p66/p51 reverse transcriptase K103N mutant assessed as inhibition of [3H]dTTP incorporation using poly(rA)/oligo(dT) as templates incubated for 15 mins by MicroBeta scintillation counting method.

The nature of series [14]: Inhibition of RNA-dependent DNA polymerase activity of recombinant HIV-1 p66/p51 reverse transcriptase Y188L mutant assessed as inhibition of [3H]dTTP incorporation using poly(rA)/oligo(dT) as templates incubated for 15 mins by MicroBeta scintillation counting method. Details: species or system Human immunodeficiency virus 1.
The nature of series [15]: Inhibition of RNA-dependent DNA polymerase activity of recombinant HIV-1 p66/p51 reverse transcriptase K103N/Y181C mutant assessed as inhibition of [3H]dTTP incorporation using poly(rA)/oligo(dT) as templates incubated for 15 mins by MicroBeta scintillation counting method. On the set-up: species or system Human immunodeficiency virus 1.
In series [16] the test system is Human immunodeficiency virus 1. Description: Antiviral activity against wild type HIV-1 P1 infected in human C8166 cells assessed as reduction in viral p24 antigen production at 25 nM. The following applies: Human immunodeficiency virus 1, P1, C8166. The class given is functional.
Series [17] deals with Human immunodeficiency virus 1. Description: Antiviral activity against wild type HIV-1 P1 infected in human C8166 cells assessed as reduction in viral RNA production at 5 nM. The conditions noted are these: Human immunodeficiency virus 1, P1, C8166. It is filed as functional.
Series [18] deals with Human immunodeficiency virus 1. Description: Antiviral activity against wild type HIV-1 P1 infected in human C8166 cells assessed as reduction in viral RNA production at 25 nM. The class given is functional. The following applies: Human immunodeficiency virus 1, P1, C8166.
For series [19], the system named is Human immunodeficiency virus 1. Description: Antiviral activity against wild type HIV-1 P1 infected in human C8166 cells assessed as reduction in viral RNA production at 1 nM. The class given is functional. The following applies: Human immunodeficiency virus 1, P1, C8166.

In the case of `Cc1cc(C)cc(S(=O)(=O)c2c(C(=O)NCC(=O)NCc3cccc(O)c3)[nH]c3ccc(Cl)cc23)c1`, the EC50 in [1] was 7.6 nM; in series [3] it was 437 nM; in series [4] it was 3.95 µM; in series [7], 3.56 µM; in series [8], below 0.6 nM. The selectivity ratio in series [2] was above 79200. In addition, the “Ratio EC50” value in series [5] is on record as above 6590; in series [6] it was above 13; in series [9], above 728; in series [11] it was above 5925. Moreover, the 50% cytotoxic concentration (CC50) in series [10] was above 47.5 µM.
In the case of `Cc1cc(C)cc(S(=O)(=O)c2c(C(=O)NCC(=O)NCc3ccccc3O)[nH]c3ccc(Cl)cc23)c1`, the EC50 in [1] is 1.9 nM; in series [3] it was 151 nM; in series [4], 0.0017 µM; in [7], 4.62 µM; in series [8] it was below 0.6 nM. Moreover, the selectivity ratio in [2] was above 78900. The “Ratio EC50” value is reported as above 2.8 in series [5], above 3.2 in series [6], above 251 in series [9] and above 7701 in [11]. For the same molecule, the CC50 in [10] is above 47.3 µM.
Take `Cc1cc(C)cc(S(=O)(=O)c2c(C(=O)NC(C)C(=O)NCc3ccccc3O)[nH]c3ccc(Cl)cc23)c1` (stereo not drawn): the EC50 in [1] is 41 nM; in series [3], 37 nM; in series [4], 6.55 µM; in [7] it was 5.24 µM; in series [8] it was below 0.6 nM. For the same molecule, the selectivity ratio in series [2] is above 23900. Moreover, the “Ratio EC50” value in series [5] is listed as 10925; in series [6] it was above 68; in series [9], above 62; in series [11] it was above 8733. Moreover, the half-maximal cytotoxic concentration (CC50) in [10] was found to be 14.4 µM.
Regarding `Cc1cc(C)cc(S(=O)(=O)c2c(C(=O)NC(C)C(=O)NCc3cccc(O)c3)[nH]c3ccc(Cl)cc23)c1` (stereo not drawn), the EC50 in series [1] is 7.4 nM; in [3], 18.5 nM; in series [4], 3.2 µM; in series [7], 3.67 µM; in series [8], below 0.6 nM. In addition, in [2], the selectivity ratio was above 39600. Moreover, the IC50 in series [12] was 208 nM; in series [13] it was 12 nM; in series [14], 34 nM; in series [15], 842 nM. Moreover, the “Ratio EC50” value in [5] was above 5340; in [6], 12; in [9], above 31; in series [11], above 5239. In addition, the CC50 in [10] came to 23.8 µM.
For the molecule `Cc1cc(C)cc(S(=O)(=O)c2c(C(=O)NCc3ccccc3N)[nH]c3ccc(Cl)cc23)c1`, the EC50 in series [1] was below 0.7 nM; in [3], below 0.7 nM; in series [4], 0.0021 µM; in [7], 0.0235 µM; in [8] it was below 0.7 nM. The selectivity ratio in [2] was above 65900. In addition, the IC50 was 19 nM in series [12], 7 nM in series [13], 57 nM in [14] and 15 nM in [15]. The values for the inhibition at 0.025 µM in series [16] and in series [18] were 90% and 100%, respectively. For the same molecule, the inhibition at 0.005 µM in series [17] was determined as 10%. Besides, the “Ratio EC50” value in series [5] was above 3; in series [11], above 33. Further, in series [10], the CC50 was 46.2 µM.
As to `Cc1cn([C@H]2C[C@H](N=[N+]=[N-])[C@@H](CO)O2)c(=O)[nH]c1=O` [ZIDOVUDINE], the selectivity ratio in [2] is above 8270. Also, the “Ratio EC50” value amounted to 8.9 in [5], 1.6 in series [6] and 4.3 in [9]. Also, the values for the EC50 in [7] and in series [8] were 0.016 µM and 3.7 nM, respectively. The CC50 in series [10] is above 30.6 µM.
Turning to `Cc1cc(C)cc(S(=O)(=O)c2c(C(=O)NCCc3ccc(O)cc3)[nH]c3ccc(Cl)cc23)c1`, the EC50 in series [1] is 85 nM; in series [3], 166 nM; in [4], above 27.4 µM; in [7] it was 4.31 µM; in series [8], below 0.7 nM. In addition, the selectivity ratio in [2] is above 39100. Moreover, the “Ratio EC50” value is above 39103 in series [5], above 141 in series [6], above 276 in series [9] and 6152 in series [11]. Moreover, in series [10], the CC50 is 27.4 µM.
For the molecule `Cc1cc(C)cc(S(=O)(=O)c2c(C(=O)NCc3cccc(O)c3)[nH]c3ccc(Cl)cc23)c1`, the EC50 is 11 nM in [1], below 0.6 nM in series [3], 0.11 µM in [7] and below 0.6 nM in series [8]. Besides, the selectivity ratio in series [2] was above 44900. Also, the IC50 is 68 nM in [12], 2 nM in series [13], 33 nM in series [14] and 45 nM in [15]. The inhibition at 0.001 µM in series [19] came out at 7%. Besides, the inhibition at 0.025 µM in series [16] amounted to 55%; in series [18], 85%. Also, the inhibition at 0.005 µM in series [17] is 38%. The results for the “Ratio EC50” value in [6] and in series [11] were above 18 and above 183, respectively. Also, the CC50 in series [10] worked out at 27 µM.
